How the values were obtained:
[1] = ACTH and β-endorphin secretion, general procedure of Example III (in vitro / in vivo not separated)
Excerpt: (§1) The urotensin peptide from Example II is examined for effects on the secretion of ACTH and β-endorphin in vitro and also examined in vivo. A low potency (4%) to stimulate the secretion of ACTH and β-endorphinby cultured rat pituitary cells is observed. The peptide also stimulates ACTH and B-END-LI secretion in vivo in several rat preparations. UI activity of the peptide is evident in the isolated rat hind limb assay, Lederis, K. et al. "Effects and Assay of Urotensin I on the Perfused Hind Limb of the Rat", Gen. Comp. Endocrinol., 24:10-16, 1974. In vivo hypotensive activity of extracted peptides is measured in anaesthetized rats, Lederis, K. and Medakovic, M. "Pharmacological Observations on the Hypotensive Actin of Extracts of Teleost Fish Urophyses (Urotensin I) in the Rat", Br. J. Pharmacol. 51:315-324, 1974, and in anaesthetized dogs, MacCannell and Lederis, "Dilatation of the Mesenteric Vascular Bed of the Dog Produced by a Peptide, Urotensin I", J. Pharm. Exp. Ther. 203:38-46, 1977.

[2] = Vasodilatory-hypotensive activity, general procedure of Example III (species not separated); assay type: in vivo; conditions: for mesenteric blood flow / systemic blood pressure / vasodilatory-hypotensive activity: general procedure of Example III; for vasodilatory-hypotensive activity: mammalian
Excerpt: as §1

[3] = test system: cultured rat pituitary cells; test: Secretion of ACTH and β-endorphin by cultured rat pituitary cells; assay type: cell-based; conditions: relative potency, reference not named
Excerpt: as §1

[4] = ACTH and B-END-LI secretion in vivo in several rat preparations
Excerpt: as §1

[5] = test system: Perfused Hind Limb of the Rat; test: Isolated rat hind limb assay (UI activity)
Excerpt: as §1

[6] = In vivo hypotensive activity in anaesthetized rats; conditions: anaesthetized rat
Excerpt: as §1

mesenteric vascular bed = test: In vivo hypotensive activity / mesenteric vasodilatation in anaesthetized dogs; set-up: species or system dog
Excerpt: as §1
In the pentobarbital-anaesthetized dog, the threshold dose of Maggy UI for mesenteric vasodilatation, when given close arterially into the cephalic mesenteric A, is between 0.001 and 0.01 μg.

teleost fish pituitaries = test: Secretion of ACTH by teleost fish pituitaries
[7] = test system: isolated mesenteric artery strips of the rat; test: Isolated mesenteric artery strips of the rat
Excerpt: The synthetic peptides described above with respect to Example I are generally equipotent with the extracted and purified peptide, as tested in the anaesthetized dog in vivo and when tested in isolated mesenteric artery strips of the rat according to Muramatsu, I., Miura, A., Fujiwara, M. and Lederis, K., Gen. Comp. Endocrinol. 45:446-452, 1981.

[8] = pentobarbital-anaesthetized dog, doses of 0.1-0.5 μg

Substance	secretion of ACTH and β-END-LI ([1]; general procedure of Example III)	mesenteric blood flow [2]	systemic blood pressure [2]	vasodilatory-hypotensive activity [2]	potency to stimulate the secretion of ACTH and β-endorphin [3]	ACTH and B-END-LI secretion in vivo [4]	UI activity [5]	blood pressure [6]	blood pressure (mesenteric vascular bed; anaesthetized dog)	dilatation of vascular beds other than the mesenteric (mesenteric vascular bed; anaesthetized dog)	activity compared with the extracted and purified peptide (mesenteric vascular bed; anaesthetized dog in vivo)	accompanying change in blood pressure (decrease) (mesenteric vascular bed; [8])	mesenteric flow (mesenteric vascular bed; [8])	potency in stimulating the secretion of ACTH compared with amunine (teleost fish pituitaries)	activity compared with the extracted and purified peptide [7]	ACTH and β-endorphin activities ([1]; in vitro and in vivo (summary statement))	blood pressure ([2]; summary statement)
Ac-SEEPPMSIDLTFHMLRNMIHRAKMEGEREQALINRNLLDEV-NH2 [IV]	stimulates	very significant increasing	lowering	causes vasodilatory-hypotensive activity	–	–	–	–	–	–	–	–	–	–	–	–	–
H-SEEPPMSIDLTFHMLRNMIHRAKMEGER-NH2 [Example V, H-Ser-Glu-Glu-Pro-Pro-Met-Ser-Ile-Asp-Leu-Thr-Phe-His-Met-Leu-Arg-Asn-Met- Ile-His-Arg-Ala-Lys-Met-Glu-Gly-Glu-Arg-NH2]	–	increasing	lowering	significant	–	–	–	–	–	–	–	–	–	–	–	–	–
H-SEEPPMSIDLTFHMLRNMIHRAKMEGEREQALINRNLLDEV-NH2 [Maggy UI]	–	–	–	–	4%	stimulates	evident	more marked fall in blood pressure	modest but sustained depression of the blood pressure	does not dilate other vascular beds	not significantly different	about 10%	significant increase	somewhat more potent than amunine	not significantly different	stimulate ACTH and β-endorphin activities in vitro and in vivo	substantially lower blood pressure for an extended time period
